Columns and labels:
p53 [1] = test: Phosphorylation of p53 (p53S46P, p53S15P) in Env-elicited syncytia; type: cell-based; conditions: 36 h coculture, SB203580, SB202190, SB202474 100 nM, LY294002 1 µM, PD98059 5 µM, anti-sense HIPK2 100 nM, Fig. 10
Experimental: Figures 10A and 10C. […] HeLa Env and HeLa CD4 cells were cocultured for 36h in the presence of the indicated agents followed by the determination of the frequency of p53S46P+ syncytia. Results are means of three independent experiments.
Figure 10B. […] Syncytia were generated as in figure 10A, after transfection with anti-sense HIPK2 phosphorothioate oligonucleotides (100 nM) or a scrambled control olignonucleotide (Co.), followed by immunofluorescence detection of p53S46P.
(§1) Transfection with pcDNA3.1 vector only, or p38 DN plasmids (gift by Roger Davis), or HPLC-purified anti-sense HIPK2 phosphorothioate oligonucleotides (100 nM) and control were transfected with Lipofectamine (Invitrogen) into HeLa CD4 cells, 24 h before co-culture with HeLa Env cells. Transfection with pcDNA3.1 vector only or a p53-responsive enhanced green fluorescent (GFP) plasmid (kind gift from Klas Wiman) was performed 24 hours before coculture of HeLa CD4 and HeLa Env cells. The frequency of GFP-expressing cells was assessed by cytofluorometry, on a FACS Vantage (Becton Dickinson) equipped with a 100 µm nozzle, allowing for the analysis of relatively large cells.

Env-elicited syncytia [2] = type: cell-based
Experimental: (§2) HeLa/U937 cell co-cultures were performed at different ratios (6). U937 or Jurkat cells were cultured with recombinant gp120 protein (500 ng/ml).

p53 [3] = type: cell-based; conditions: syncytia, 24 hours; SN50 20 µM, roscovitin 1 µM; Fig. 3B
Experimental: The frequency of GFP-expressing cells was assessed by cytofluorometry, on a FACS Vantage (Becton Dickinson) equipped with a 100 µm nozzle, allowing for the analysis of relatively large cells.
as §1

Env-induced syncytia = conditions: reference (5); cited from earlier work
Env-elicited syncytia [4] = test: Karyogamy and cyclin B accumulation in Env-elicited syncytia; type: cell-based; conditions: SN50 20 µM, roscovitin 1 µM; Fig. 3D
Experimental: Figure 3D. […] Syncytia were treated with various drugs as in B, and the frequency of karyogamic cells was scored.
as §2

COc1cccc(-c2cc(=O)c3ccccc3o2)c1N [PD98059]
frequency of p53S46P+ syncytia (p53S46P) (p53 [1]; 500 mM caffeine): failed to affect

Oc1ccc(-c2nc(-c3ccc(F)cc3)c(-c3ccncc3)[nH]2)cc1 [SB202190]
frequency of p53S46P+ syncytia (p53S46P) (p53 [1]; 500 mM caffeine): strongly reduced

CCc1nc(-c2ccc(OC)cc2)[nH]c1-c1ccncc1 [SB202474]
frequency of p53S46P+ syncytia (p53S46P) (p53 [1]; 500 mM caffeine): not

Cn1c(=O)c2c(ncn2C)n(C)c1=O [caffeine]
propensity of syncytia to undergo apoptosis (Env-elicited syncytia [2]): did not reduce
frequency of p53S46P+ syncytia (p53S46P) (p53 [1]; caffeine): no effect

CC[C@H](CO)Nc1nc(NCc2ccccc2)c2ncn(C(C)C)c2n1 [roscovitine]
p53-dependent transcription (p53-inducible GFP construct) (p53 [3]): inhibited
syncytium-dependent cell death (Env-induced syncytia): blocked
emergence of karyogamic syncytia (karyogamy) (Env-elicited syncytia [4]): inhibiting

Reference: patent publication EP1542016A1, “PUMA, phosphorylated p53 and p38 map kinase as markers for HIV-1-induced apoptosis in circulating T cells of infected patient” (Institut Gustave Roussy, priority 2003, dated 2005)
